# Measurements: patent US20250197372A1 (priority 2020, published 2025)
# Read-outs that look alike come from different tables or passages of the source.
# Key:
# Type in all cases: biochemical
# [1] = target: rat sucrase (partially purified alpha-glucosidase from intestinal rat powder) (Rattus norvegicus, UniProt P23739); assay: Intestinal alpha-glucosidase assay, sucrose substrate (Glucose GO Kit)
# Procedure, shortened: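 First step: 60 min, 37 °C, compound with partially purified rat intestinal alpha-glucosidase. Next, maltose or sucrose for 30 min at 37 °C, ended at 90 °C for 5 min. Glucose quantified enzymatically; concentration–inhibition data fitted 4-PL for IC50.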
# [2] = target: recombinant human GAA (acid alpha-glucosidase) (Homo sapiens, UniProt P10253); assay: Acid alpha-glucosidase (GAA) assay (4-methylumbelliferyl-alpha-D-pyranoside substrate, fluorescence)
# Procedure, shortened: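 IC50 from 4-PL curve fit of percent inhibition, based on fluorescence (365/440 nm) of released methylumbelliferone relative to uninhibited enzyme. Compound dilutions and human GAA incubated 60 min, 37 °C, before 20 min substrate reaction at 37 °C, quenched at pH 10.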
# [3] = target: rat maltase (partially purified alpha-glucosidase from intestinal rat powder); assay: Intestinal alpha-glucosidase assay, maltose substrate (Glucose GO Kit)
# Procedure, shortened: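 Partially purified alpha-glucosidase from rat intestinal powder was preincubated 60 min at 37 °C with serial compound dilutions, then given maltose or sucrose and incubated 30 min at 37 °C.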
# [4] = target: T1, recombinant alpha-glucosidase I (human full-length glucosidase I, Glu 1) (Homo sapiens, UniProt Q13724); assay: Alpha-glucosidase I assay (Amplex Red glucose detection, synthetic trisaccharide substrate)
# T1 construct: 6-His (C); made in house; host or cells: HEK-293T cells transduced with BacMam virus (virus raised in Sf9)
# T1 sequence (Q13724 1-837): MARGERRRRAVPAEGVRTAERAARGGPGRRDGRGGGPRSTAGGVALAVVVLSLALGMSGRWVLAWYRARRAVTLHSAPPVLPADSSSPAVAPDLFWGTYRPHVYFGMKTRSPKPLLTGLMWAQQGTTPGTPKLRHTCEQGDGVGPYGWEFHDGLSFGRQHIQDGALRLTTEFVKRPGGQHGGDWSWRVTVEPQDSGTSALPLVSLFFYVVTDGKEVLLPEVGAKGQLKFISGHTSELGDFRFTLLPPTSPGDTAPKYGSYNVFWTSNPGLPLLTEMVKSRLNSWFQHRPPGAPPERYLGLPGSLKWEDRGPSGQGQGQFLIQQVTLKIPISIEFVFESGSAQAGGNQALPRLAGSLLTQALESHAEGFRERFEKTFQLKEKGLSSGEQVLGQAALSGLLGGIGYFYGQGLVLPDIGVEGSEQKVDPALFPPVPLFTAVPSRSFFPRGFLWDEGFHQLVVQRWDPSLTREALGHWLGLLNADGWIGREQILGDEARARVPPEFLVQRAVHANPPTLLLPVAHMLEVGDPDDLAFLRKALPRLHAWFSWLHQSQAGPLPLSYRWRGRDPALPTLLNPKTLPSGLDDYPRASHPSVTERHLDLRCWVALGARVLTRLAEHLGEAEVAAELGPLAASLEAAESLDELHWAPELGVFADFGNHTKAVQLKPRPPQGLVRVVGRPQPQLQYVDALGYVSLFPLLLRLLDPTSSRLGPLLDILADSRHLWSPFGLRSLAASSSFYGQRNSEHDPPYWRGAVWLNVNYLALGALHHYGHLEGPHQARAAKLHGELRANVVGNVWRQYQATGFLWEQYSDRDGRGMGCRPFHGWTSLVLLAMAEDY
# Procedure, shortened: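 Compound dilution series incubated 60 min at 37° C with recombinant His-tagged human glucosidase I ([…]), after which trisaccharide substrate analog was added for 90 min at 37° C. Reaction quenched with 1.5M Tris pH 8; D-glucose detected by Amplex Red fluorescence, 560/590 nm. 4-PL curve fit of percent inhibition gave IC50.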
# [5] = Glucosidase 1, read-out: Glu 1 IC50
# rat sucrase (partially purified alpha-glucosidase from intestinal rat powder), sequence (P23739 whole entry): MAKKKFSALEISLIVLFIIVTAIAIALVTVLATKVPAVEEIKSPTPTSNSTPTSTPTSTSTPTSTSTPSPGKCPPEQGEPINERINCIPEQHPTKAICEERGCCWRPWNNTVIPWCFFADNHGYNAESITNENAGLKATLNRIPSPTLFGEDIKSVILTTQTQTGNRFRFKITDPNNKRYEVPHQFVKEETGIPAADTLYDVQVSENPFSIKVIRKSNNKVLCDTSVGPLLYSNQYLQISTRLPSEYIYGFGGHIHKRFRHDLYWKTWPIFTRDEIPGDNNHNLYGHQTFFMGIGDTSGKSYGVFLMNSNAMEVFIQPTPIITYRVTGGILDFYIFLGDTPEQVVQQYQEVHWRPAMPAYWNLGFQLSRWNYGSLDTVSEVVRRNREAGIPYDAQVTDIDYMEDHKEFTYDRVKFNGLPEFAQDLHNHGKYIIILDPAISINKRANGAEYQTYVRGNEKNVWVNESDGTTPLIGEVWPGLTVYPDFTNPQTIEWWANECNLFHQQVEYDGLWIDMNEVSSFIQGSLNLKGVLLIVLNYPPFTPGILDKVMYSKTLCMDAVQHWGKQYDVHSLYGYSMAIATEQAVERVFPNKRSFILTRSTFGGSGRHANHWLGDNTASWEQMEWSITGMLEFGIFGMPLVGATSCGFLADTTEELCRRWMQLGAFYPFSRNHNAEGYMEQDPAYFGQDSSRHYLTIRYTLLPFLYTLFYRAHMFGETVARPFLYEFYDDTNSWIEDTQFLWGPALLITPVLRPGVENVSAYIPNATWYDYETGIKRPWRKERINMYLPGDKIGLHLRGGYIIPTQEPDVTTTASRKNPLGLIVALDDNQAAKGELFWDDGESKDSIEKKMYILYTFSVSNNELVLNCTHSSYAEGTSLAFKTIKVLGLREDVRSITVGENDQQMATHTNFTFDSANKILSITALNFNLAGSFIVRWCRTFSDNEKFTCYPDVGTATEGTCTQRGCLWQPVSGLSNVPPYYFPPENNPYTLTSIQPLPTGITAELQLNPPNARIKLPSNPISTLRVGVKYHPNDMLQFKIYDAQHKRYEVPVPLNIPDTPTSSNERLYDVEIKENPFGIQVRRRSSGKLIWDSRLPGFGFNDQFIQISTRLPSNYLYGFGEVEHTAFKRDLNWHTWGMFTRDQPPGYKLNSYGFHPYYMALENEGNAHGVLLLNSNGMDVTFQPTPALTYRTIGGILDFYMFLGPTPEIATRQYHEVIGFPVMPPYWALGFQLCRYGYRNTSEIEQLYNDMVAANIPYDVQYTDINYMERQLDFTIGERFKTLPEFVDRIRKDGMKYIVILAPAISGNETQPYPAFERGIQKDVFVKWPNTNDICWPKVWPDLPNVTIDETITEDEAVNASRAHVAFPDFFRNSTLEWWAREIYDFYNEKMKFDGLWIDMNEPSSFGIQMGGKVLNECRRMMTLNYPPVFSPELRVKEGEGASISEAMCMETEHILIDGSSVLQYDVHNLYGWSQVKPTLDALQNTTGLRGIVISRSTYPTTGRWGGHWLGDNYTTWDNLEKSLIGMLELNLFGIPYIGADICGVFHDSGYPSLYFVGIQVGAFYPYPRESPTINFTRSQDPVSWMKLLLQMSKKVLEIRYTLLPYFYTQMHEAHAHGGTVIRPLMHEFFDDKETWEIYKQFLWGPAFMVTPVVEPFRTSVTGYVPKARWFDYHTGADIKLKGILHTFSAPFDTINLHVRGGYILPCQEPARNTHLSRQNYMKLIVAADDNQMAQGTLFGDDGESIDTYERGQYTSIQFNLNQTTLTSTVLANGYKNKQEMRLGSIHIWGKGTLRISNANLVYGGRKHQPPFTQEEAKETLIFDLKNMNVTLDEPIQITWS
Structure (SMILES),IC50 [1],IC50 [2],IC50 [3],"IC50 [4, 5]",IC50 [4]
"[N-]=[N+]=Nc1ccc(NCCc2ccc(CCN3C[C@H](O)[C@@H](O)[C@H](O)[C@H]3CO)s2)c([N+](=O)[O-])c1 [Compound 1186, (2R,3R,4R,5S)-1-[2-(5-{2-[(4-azido-2-nitrophenyl)amino]ethyl}hiophen-2-yl)ethyl]-2-(hydroxymethyl)piperidine-3,4,5-triol]",0.175 µM,0.263 µM,0.005 µM,0.003 µM,
"[N-]=[N+]=Nc1ccc(NCCc2cncc(CCN3C[C@H](O)[C@@H](O)[C@H](O)[C@H]3CO)n2)c([N+](=O)[O-])c1 [Compound 1187, (2R,3R,4R,5S)-1-[2-(6-{2-[(4-azido-2-nitrophenyl)amino]ethyl}pyrazin-2-yl)ethyl]-2-(hydroxymethyl)piperidine-3,4,5-triol]",2.05 µM,0.615 µM,1.21 µM,,0.094 µM
"[N-]=[N+]=Nc1ccc(NCCc2nccc(CCN3C[C@H](O)[C@@H](O)[C@H](O)[C@H]3CO)n2)c([N+](=O)[O-])c1 [Compound 1188, (2R,3R,4R,5S)-1-[2-(2-{2-[(4-azido-2-nitrophenyl)amino]ethyl}pyrimidin-4-yl)ethyl]-2-(hydroxymethyl)piperidine-3,4,5-triol]",0.783 µM,0.838 µM,0.164 µM,0.762 µM,
"[N-]=[N+]=Nc1ccc(NCCc2cnn(CCN3C[C@H](O)[C@@H](O)[C@H](O)[C@H]3CO)c2)c([N+](=O)[O-])c1 [Compound 1191, (2R,3R,4R,5S)-1-[2-(4-{2-[(4-azido-2-nitrophenyl)amino]ethyl}-1H-pyrazol-1-yl)ethyl]-2-(hydroxymethyl)piperidine-3,4,5-triol]",2.01 µM,2.74 µM,0.171 µM,7.55 µM,
"OC[C@@H]1[C@@H](O)[C@H](O)[C@@H](O)CN1CCCCCCNc1cc(Cl)cc(-c2cnccn2)c1 [Compound 1196, (2R,3R,4R,5S)-1-(6-{[3-chloro-5-(pyrazin-2-yl)phenyl]amino}hexyl)-2-(hydroxymethyl)piperidine-3,4,5-triol]",0.175 µM,0.01 µM,0.002 µM,0.105 µM,
"COc1cc(NCCCCCCN2C[C@H](O)[C@@H](O)[C@H](O)[C@H]2CO)cc(-c2cnccn2)c1 [Compound 1197, (2R,3R,4R,5S)-2-(hydroxymethyl)-1-(6-{[3-methoxy-5-(pyrazin-2-yl)phenyl]amino}hexyl)piperidine-3,4,5-triol]",0.177 µM,0.037 µM,0.009 µM,0.14 µM,
"OC[C@@H]1[C@@H](O)[C@H](O)[C@@H](O)CN1CCCCCCNc1ccc(-c2cnccn2)cc1Cl [Compound 1198, (2R,3R,4R,5S)-1-(6-{[2-chloro-4-(pyrazin-2-yl)phenyl]amino}hexyl)-2-(hydroxymethyl)piperidine-3,4,5-triol]",0.001 µM,0.047 µM,< 0.001 µM,0.012 µM,
"COc1cc(-c2cnccn2)ccc1NCCCCCCN1C[C@H](O)[C@@H](O)[C@H](O)[C@H]1CO [Compound 1199, (2R,3R,4R,5S)-2-(hydroxymethyl)-1-(6-{[2-methoxy-4-(pyrazin-2-yl)phenyl]amino}hexyl)piperidine-3,4,5-triol]",0.016 µM,0.043 µM,0.008 µM,0.077 µM,
"[N-]=[N+]=Nc1ccc(NCCc2ccc(CCN3C[C@H](O)[C@@H](O)[C@H](O)[C@H]3CO)cc2)c([N+](=O)[O-])c1 [Compound 1200, (2R,3R,4R,5S)-1-[2-(4-{2-[(4-azido-2-nitrophenyl)amino]ethyl}phenyl)ethyl]-2-(hydroxymethyl)piperidine-3,4,5-triol]",0.746 µM,1.16 µM,0.081 µM,0.031 µM,
"OC[C@@H]1[C@@H](O)[C@H](O)[C@@H](O)CN1CCCCCCNc1ccc(-c2cccnn2)cc1Cl [Compound 1202, (2R,3R,4R,5S)-1-(6-{[2-chloro-4-(pyridazin-3-yl)phenyl]amino}hexyl)-2-(hydroxymethyl)piperidine-3,4,5-triol]",< 0.001 µM,0.039 µM,< 0.001 µM,< 0.001 µM,
"OC[C@@H]1[C@@H](O)[C@H](O)[C@@H](O)CN1CCCCCCNc1ccc(-c2ncco2)cc1Cl [Compound 1203, (2R,3R,4R,5S)-1-(6-{[2-chloro-4-(1,3-oxazol-2-yl)phenyl]amino}hexyl)-2-(hydroxymethyl)piperidine-3,4,5-triol]",0.011 µM,0.04 µM,< 0.001 µM,0.003 µM,
"COc1cc(-c2ncco2)ccc1NCCCCCCN1C[C@H](O)[C@@H](O)[C@H](O)[C@H]1CO [Compound 1207, (2R,3R,4R,5S)-2-(hydroxymethyl)-1-(6-{[2-methoxy-4-(1,3-oxazol-2-yl)phenyl]amino}hexyl)piperidine-3,4,5-triol]",0.071 µM,0.075 µM,0.007 µM,0.118 µM,
"[N-]=[N+]=Nc1ccc(NCC/C=C/CCN2C[C@H](O)[C@@H](O)[C@H](O)[C@H]2CO)c([N+](=O)[O-])c1 [Compound 1260, (2R,3R,4R,5S)-1-[(3E)-6-[(4-azido-2-nitrophenyl)amino]hex-3-en-1-yl]-2-(hydroxymethyl)piperidine-3,4,5-triol]",0.029 µM,0.044 µM,< 0.001 µM,,0.136 µM
"O=[N+]([O-])c1cc(CCO)ccc1NCCCCCCN1C[C@H](O)[C@@H](O)[C@H](O)[C@H]1CO [Compound 1292, (2R,3R,4R,5S)-1-(6-{[4-(2-hydroxyethyl)-2-nitrophenyl]amino}hexyl)-2-(hydroxymethyl)piperidine-3,4,5-triol]",0.04 µM,0.028 µM,0.011 µM,,0.157 µM
"CS(=O)(=O)Nc1ccc(NCCCCCCN2C[C@H](O)[C@@H](O)[C@H](O)[C@H]2CO)c([N+](=O)[O-])c1 [Compound 1300, N-[3-nitro-4-({6-[(2R,3R,4R,5S)-3,4,5-trihydroxy-2-(hydroxy-methyl)piperidin-1-yl]hexyl}amino)phenyl]methanesulfonamide]",0.052 µM,0.02 µM,< 0.01 µM,,0.157 µM
"COCCc1ccc(CCCCCN2C[C@H](O)[C@@H](O)[C@H](O)[C@H]2CO)cc1 [Compound 1307, (2R,3R,4R,5S)-2-(hydroxymethyl)-1-{5-[4-(2-methoxyethyl)phenyl]pentyl}piperidine-3,4,5-triol]",0.387 µM,0.95 µM,0.032 µM,,1.16 µM
"Cc1cc(-c2ccco2)ccc1NCc1ccc(CN2C[C@H](O)[C@@H](O)[C@H](O)[C@H]2CO)cc1 [Compound 1324, (2R,3R,4R,5S)-1-{[4-({[4-(furan-2-yl)-2-methylphenyl]amino}methyl)phenyl]methyl}-2-(hydroxymethyl)piperidine-3,4,5-triol]",< 0.001 µM,0.08 µM,< 0.001 µM,,< 0.001 µM
"Cc1cc(NCc2cccc(CN3C[C@H](O)[C@@H](O)[C@H](O)[C@H]3CO)n2)cc(-c2ccc[nH]2)c1 [Compound 1335, (2R,3R,4R,5S)-2-(hydroxymethyl)-1-{[6-({[3-methyl-5-(1H-pyrrol-2-yl)phenyl]amino}methyl)pyridin-2-yl]methyl}piperidine-3,4,5-triol]",0.321 µM,0.47 µM,0.231 µM,,0.966 µM
"Cc1nc2cc(-c3ncccn3)ccc2n1CCCCCCN1C[C@H](O)[C@@H](O)[C@H](O)[C@H]1CO [Compound 1339, (2R,3R,4R,5S)-2-(hydroxymethyl)-1-{6-[2-methyl-5-(pyrimidin-2-yl)-1H-1,3-benzodiazol-1-yl]hexyl}piperidine-3,4,5-triol]",0.049 µM,0.24 µM,0.014 µM,,0.078 µM
